Experimental data from the CheMixHub ionic liquid set.

Assay: xn = mol fraction of the nth substance listed

OC[C@@H](O)[C@@H](O)[C@H](O)[C@@H](O)CO + CCCCCCCCCCCCCCCC[N+](C)(C)C.[Br-] + O
viscosity [mPa·s], 100 kPa
Conditions	298.15 K	308.15 K	318.15 K
x1 = 0.0007313, x2 = 1.441e-05	0.921	0.762	–
x1 = 0.0008985, x2 = 7.2e-06	0.923	–	0.634
x1 = 0.001226, x2 = 1.44e-05	–	0.774	–
x1 = 0.001311, x2 = 2.16e-05	0.942	0.779	0.644
x1 = 0.001618, x2 = 1.439e-05	0.949	–	0.649
x1 = 0.001661, x2 = 2.159e-05	0.954	0.788	0.651
x1 = 0.001736, x2 = 7.2e-06	0.949	–	0.651
x1 = 0.001867, x2 = 7.19e-06	–	0.788	0.654
x1 = 0.001983, x2 = 2.158e-05	0.964	–	0.658
x1 = 0.00199, x2 = 1.439e-05	0.96	0.793	0.657
x1 = 0.00225, x2 = 2.157e-05	0.973	0.803	0.664
x1 = 0.002345, x2 = 7.19e-06	0.968	0.799	0.663
x1 = 0.002374, x2 = 1.438e-05	0.972	0.803	0.665
x1 = 0.002657, x2 = 1.438e-05	0.981	0.81	0.67
x1 = 0.002734, x2 = 7.19e-06	0.98	0.809	0.671
x1 = 0.002734, x2 = 2.156e-05	0.989	0.816	0.674

CC(=O)[O-].CCCCC[N+](CCCCC)(CCCCC)CCCCC + CCCCCCCCCCCCOS(=O)(=O)[O-].[Na+] + O
viscosity [mPa·s], 100 kPa
Conditions	x2 = 1.81e-06, x1 = 0.0001802	x2 = 3.62e-06, x1 = 0.0001802	x2 = 5.42e-06, x1 = 0.0001802	x2 = 7.23e-06, x1 = 0.0001802	x2 = 9.04e-06, x1 = 0.0001802	x2 = 1.085e-05, x1 = 0.0001802	x2 = 1.266e-05, x1 = 0.0001802	x2 = 1.446e-05, x1 = 0.0001802	x2 = 1.627e-05, x1 = 0.0001802	x2 = 1.808e-05, x1 = 0.0001802
293.15 K	1.002	1.003	1.005	1.005	1.007	1.007	1.007	1.007	1.007	1.008
298.15 K	0.89	0.893	0.894	0.896	0.898	0.9	0.902	0.902	0.904	0.904
303.15 K	0.784	0.786	0.789	0.792	0.793	0.796	0.796	0.796	0.798	0.796
308.15 K	0.701	0.703	0.704	0.706	0.707	0.707	0.708	0.708	0.709	0.709
313.15 K	0.636	0.638	0.641	0.643	0.645	0.646	0.646	0.647	0.648	0.648
318.15 K	0.587	0.587	0.589	0.59	0.591	0.593	0.593	0.597	0.598	0.599

CC(=O)[O-].CCCCC[N+](CCCCC)(CCCCC)CCCCC + CCCCCCCCCCCC[N+](C)(C)C.[Br-] + O
viscosity [mPa·s], 100 kPa
Conditions	x2 = 5.424e-05, x1 = 0.0001802	x2 = 0.0001085, x1 = 0.0001801	x2 = 0.0001627, x1 = 0.0001801	x2 = 0.0002169, x1 = 0.0001801	x2 = 0.0002711, x1 = 0.0001801	x2 = 0.0003254, x1 = 0.0001801	x2 = 0.0003796, x1 = 0.0001801	x2 = 0.0004338, x1 = 0.0001801	x2 = 0.000488, x1 = 0.0001801	x2 = 0.0005421, x1 = 0.0001801
293.15 K	1.029	1.031	1.033	1.034	1.034	1.035	1.035	1.036	1.036	1.036
298.15 K	0.921	0.924	0.928	0.928	0.929	0.929	0.93	0.93	0.931	0.931
303.15 K	0.811	0.813	0.816	0.819	0.822	0.825	0.825	0.828	0.829	0.83
308.15 K	0.728	0.731	0.731	0.733	0.734	0.737	0.741	0.745	0.746	0.749
313.15 K	0.659	0.661	0.664	0.666	0.667	0.669	0.669	0.67	0.671	0.671
318.15 K	0.609	0.609	0.611	0.612	0.613	0.615	0.615	0.619	0.62	0.621

O=P([O-])(O)O.[Na+] + CCCCCCCCCCCC[N+](C)(C)C.[Br-] + O
298.15 K, 101 kPa
Conditions	electrical conductivity [S/m]
x2 = 0, x1 = 0.0001802	0.1015
x2 = 0, x1 = 0.001799	0.7566
x2 = 3.79e-06, x1 = 0.0001802	0.1031
x2 = 5.64e-06, x1 = 0.001799	0.7559
x2 = 7.76e-06, x1 = 0.0001802	0.1049
x2 = 1.11e-05, x1 = 0.001799	0.7567
x2 = 1.317e-05, x1 = 0.0001802	0.1075
x2 = 1.858e-05, x1 = 0.0001802	0.1101
x2 = 1.893e-05, x1 = 0.001799	0.7581
x2 = 2.345e-05, x1 = 0.0001802	0.1124
x2 = 2.603e-05, x1 = 0.001799	0.7597
x2 = 3.427e-05, x1 = 0.0001802	0.1175
x2 = 3.55e-05, x1 = 0.001799	0.7617
x2 = 4.401e-05, x1 = 0.0001802	0.1222
x2 = 4.714e-05, x1 = 0.001799	0.7635
x2 = 5.411e-05, x1 = 0.0001802	0.127
x2 = 5.843e-05, x1 = 0.001799	0.766
x2 = 6.457e-05, x1 = 0.0001802	0.132
x2 = 6.953e-05, x1 = 0.001799	0.7685
x2 = 7.467e-05, x1 = 0.0001801	0.1368
x2 = 8.082e-05, x1 = 0.001799	0.771
x2 = 8.477e-05, x1 = 0.0001801	0.1416
x2 = 9.228e-05, x1 = 0.001799	0.7738
x2 = 9.541e-05, x1 = 0.0001801	0.1467
x2 = 0.0001034, x1 = 0.001799	0.777
x2 = 0.0001055, x1 = 0.0001801	0.1516
x2 = 0.0001145, x1 = 0.001799	0.7803
x2 = 0.0001154, x1 = 0.0001801	0.1563
x2 = 0.0001255, x1 = 0.0001801	0.161
x2 = 0.0001258, x1 = 0.001799	0.7836
x2 = 0.0001363, x1 = 0.001799	0.7867
x2 = 0.0001371, x1 = 0.0001801	0.1667
x2 = 0.0001469, x1 = 0.001798	0.7899
x2 = 0.0001488, x1 = 0.0001801	0.1723
x2 = 0.0001578, x1 = 0.001798	0.793
x2 = 0.0001602, x1 = 0.0001801	0.1777
x2 = 0.0001687, x1 = 0.001798	0.7962
x2 = 0.0001715, x1 = 0.0001801	0.1831
x2 = 0.0001796, x1 = 0.001798	0.7996
x2 = 0.0001829, x1 = 0.0001801	0.1884
x2 = 0.0001905, x1 = 0.001798	0.8028
x2 = 0.0001941, x1 = 0.0001801	0.1937
x2 = 0.0002011, x1 = 0.001798	0.8057
x2 = 0.0002054, x1 = 0.0001801	0.1991
x2 = 0.0002117, x1 = 0.001798	0.8081
x2 = 0.0002166, x1 = 0.0001801	0.2043
x2 = 0.0002224, x1 = 0.001798	0.8103
x2 = 0.0002276, x1 = 0.0001801	0.2096
x2 = 0.0002326, x1 = 0.001798	0.8125
x2 = 0.0002384, x1 = 0.0001801	0.2146
x2 = 0.0002431, x1 = 0.001798	0.8147
x2 = 0.0002492, x1 = 0.0001801	0.2196
x2 = 0.0002537, x1 = 0.001798	0.8169
x2 = 0.0002601, x1 = 0.0001801	0.2239
x2 = 0.0002641, x1 = 0.001798	0.8191
x2 = 0.0002692, x1 = 0.0001801	0.2266
x2 = 0.0002744, x1 = 0.001798	0.8212
x2 = 0.0002795, x1 = 0.0001801	0.2291
x2 = 0.0002848, x1 = 0.001798	0.8234
x2 = 0.0002918, x1 = 0.0001801	0.2316
x2 = 0.0003062, x1 = 0.0001801	0.234
x2 = 0.0003222, x1 = 0.0001801	0.2367
x2 = 0.0003394, x1 = 0.0001801	0.2394
x2 = 0.000366, x1 = 0.0001801	0.2432
x2 = 0.0003922, x1 = 0.0001801	0.2467

CC[n+]1ccn(C)c1.O=S(=O)([N-]S(=O)(=O)C(F)(F)F)C(F)(F)F + CCCCCCCCCCCC[n+]1ccn(C)c1.O=S(=O)([N-]S(=O)(=O)C(F)(F)F)C(F)(F)F
100 kPa, x2 = 0
Conditions	viscosity [mPa·s]
293 K	36
313 K	18

c1ccccc1 + CCCCCCCC[n+]1ccc2ccccc2c1.O=S(=O)([N-]S(=O)(=O)C(F)(F)F)C(F)(F)F
101 kPa, x1 = 1
Conditions	viscosity [mPa·s]
308.15 K	0.53
328.15 K	0.42
